Here are results for three compounds from paper PMC6155227 (Molecules : A Journal of Synthetic Chemistry and Natural …, 2017).

Data set [1] deals with H5N1(A/Vietnam/1203/2004) strain. Briefly: microbe, parasite or virus in culture. It counts as cell-based, influenza virus A/Vietnam/1203/2004 (H5N1). Particulars: Influenza A virus, H5N1, MDCK.
For data set [2], the system named is MDCK cells. Particulars: dog.
Data set [3] relates to porcine reproductive and respiratory syndrome virus (PRRSV). Particulars: cited from earlier work.
In data set [4] the test system is avian influenza virus. Particulars: mouse, in vivo; cited from earlier work.

Turning to `CCCC(=O)c1c(O)c(CC2=C(O)C(C)(C)C(O)=C(C(C)=O)C2=O)c(O)c(CC2=C(O)C(C)(C)C(O)=C(C(C)=O)C2=O)c1O` [Filixic acid ABA, filixic acid ABA], in data set [1] (read-out: inhibition rate), the inhibition at 100 µM was less than 50%. Also, in data set [2], the maximal non-cytotoxic concentration was found to be 100 µM.
On to `CCCC(=O)c1c(O)c(C)c(O)c(CC2=C(O)C(C)(C)C(O)=C(C(C)=O)C2=O)c1O` [Flavaspidic acid AB, flavaspidic acid AB], for which the virus replication result in data set [3] is recorded as “inhibit replication”.
For the compound `CCCC(=O)c1c(O)c(CC2=C(O)C(C)(C)C(O)=C(C(C)=O)C2=O)c(O)c(Cc2c(O)c(CC3=C(O)C(C)(C)C(O)=C(C(C)=O)C3=O)c(O)c(C(=O)CCC)c2O)c1O` [Dryocrassin ABBA, dryocrassin ABBA], the EC50 in data set [1] (72 h, read-out: EC50 anti-influenza virus activity) amounted to 16.6 µM. The “50% toxicity concentration (TC50)” value in data set [2] is reported as “greater than 400 μM”. Moreover, the “protection of infected mice” value in data set [4] was “protect mice infected with avian influenza virus”.
